Counter-ions that a name gives are not always drawn. A value given as a limit tells only on which side of the number the result lay.

The record followed here is patent US11384063B2, “Modulators of estrogen receptor proteolysis and associated methods of use” (Arvinas Operations, Inc., priority 2017, dated 2022).

The target in assay [1] is T1, ERα (Homo sapiens, UniProt P03372).
T1 sequence (P03372 1-595): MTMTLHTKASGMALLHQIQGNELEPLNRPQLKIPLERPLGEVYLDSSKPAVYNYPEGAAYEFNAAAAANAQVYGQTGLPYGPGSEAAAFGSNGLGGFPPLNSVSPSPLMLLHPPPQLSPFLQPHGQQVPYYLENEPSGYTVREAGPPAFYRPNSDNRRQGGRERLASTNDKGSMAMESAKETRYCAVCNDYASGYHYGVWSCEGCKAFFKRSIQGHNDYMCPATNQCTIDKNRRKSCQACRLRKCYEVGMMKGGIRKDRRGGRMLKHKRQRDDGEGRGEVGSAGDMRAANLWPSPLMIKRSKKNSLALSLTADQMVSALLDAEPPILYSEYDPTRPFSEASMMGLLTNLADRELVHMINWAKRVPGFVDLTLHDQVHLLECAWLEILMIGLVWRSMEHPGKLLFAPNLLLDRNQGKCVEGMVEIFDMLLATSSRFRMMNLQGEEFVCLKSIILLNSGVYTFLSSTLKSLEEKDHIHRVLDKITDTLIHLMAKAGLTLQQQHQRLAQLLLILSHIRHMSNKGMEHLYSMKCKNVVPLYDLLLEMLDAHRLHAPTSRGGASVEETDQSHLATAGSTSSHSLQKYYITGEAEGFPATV
The assay can be described thus: Estrogen receptor-alpha (ERα) degradation assay in MCF7 cells using In-Cell Western assay. The format is cell-based. Also noted: assessed for their activity in degrading ERα in MCF-7 cells via western blot; endogenous in cells; host or cells: MCF7 cells. The conditions noted are these: ER-alpha degradation in MCF7 cells, 5 days of incubation. In short, it runs like this: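 MCF7 cells treated 3 or 5 days at 37 °C with 11-point 3-fold dilutions from 1 μM final top. Fixed cells immunostained for ERα and tubulin, read by infrared imaging at 700/800 nm. ERα normalized to tubulin then to DMSO vehicle; DC50 and Dmax from 4-parameter curve fit.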

Assay [2] concerns the target T1, ERα. The assay is described as follows: ERE luciferase reporter gene assay in T47D-KBluc cells (target engagement). It counts as cell-based. Details: T47D human breast cancer cells stably transfected with estrogen responsive element/promoter/luciferase reporter gene; host or cells: T47D-KBluc cells. The conditions noted are these: 10% FBS, 24 hours, Table 3 cereblon centric PROTACs, read-out: ER-α Luciferase IC50. A digest of the protocol: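 PROTACs were tested at 12 concentrations from 300 nM down to 2 pM in 3-fold steps for 24 h on T47D-KBluc cells with a stable ERE-driven luciferase. Medium was RPMI with 10% FBS, measured at 10 pM estrogen. IC50 came from luminescence after lysis, in duplicate.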
Background: In a reporter assay the amount or activity of a reporter protein is the signal.

A word on the DC50: it is the concentration at which degradation of the target reaches its halfway point. The low end stands for a more potent degrader, the high end for a less potent degrader. One may read the Dmax as the largest share of the target that was removed. Usually IC50 stands for the concentration needed to halve the response being measured. At ERα [1], `O=C1CCC(N2C(=O)c3ccc(N4CCN(CC5CCN(CCOc6ccc(Oc7c(-c8ccc(Br)cc8)sc8cc(O)ccc78)cc6)CC5)CC4)cc3C2=O)C(=O)N1` (stereo not drawn) [Compound 184, 5-[4-[1-[2-[4-[2-(4-bromophenyl)-6-hydroxy-benzothiophen-3-yl]oxyphenoxy]ethyl]-4-piperidylmethyl]piperazin-1-yl]-2-(2,6-dioxo-3-piperidyl)isoindoline-1,3-dione] returned a DC50 of 10 to 100 nM and a Dmax of over 75%. The IC50 on ERα [2] was determined as 13.3 nM.
With `O=C1CCC(N2C(=O)c3ccc(C4CCN(C5CCN(CCOc6ccc(Oc7c(-c8ccc(Br)cc8)sc8cc(O)ccc78)cc6)CC5)CC4)cc3C2=O)C(=O)N1` (stereo not drawn) [Compound 190, 5-(1′-(2-(4-((2-(4-bromophenyl)-6-hydroxybenzo[b]thiophen-3-yl)oxy)phenoxy)ethyl)-[1,4′-bipiperidin]-4-yl)-2-(2,6-dioxopiperidin-3-yl)isoindoline-1,3-dione Hydrochloride], at ERα [1], the DC50 is 1 to 10 nM and the Dmax lay in the range of 50 to 75%. Moreover, at ERα [2], the IC50 was 11.6 nM.
Consider `O=C1CCC(N2C(=O)c3ccc(N4CCN(CC5CCN(c6ccc(Oc7c(-c8ccc(Br)cc8)sc8cc(O)ccc78)cc6)CC5)CC4)cc3C2=O)C(=O)N1` (stereo not drawn) [Compound 228, 5-[4-[[1-[4-[2-(4-bromophenyl)-6-hydroxy-benzothiophen-3-yl]oxyphenyl]-4-pipendyl]methyl]piperazin-1-yl]-2-(2,6-dioxo-3-piperidyl)isoindoline-1,3-dione], for which, at ERα [1], the DC50 lay in the range of 1 to 10 nM and the Dmax is over 75%. In addition, the IC50 on ERα [2] came to 24.9 nM.
Take `O=C1CC[C@H](N2Cc3cc(CCN4CCCN(CCCCOc5ccc(Oc6c(-c7ccc(Br)cc7)sc7cc(O)ccc67)cc5)CC4)ccc3C2=O)C(=O)N1` [Compound 182, (3S)-3-[5-[2-[4-[4-[4-[2-(4-bromophenyl)-6-hydroxy-benzothiophen-3-yl]oxyphenoxy]butyl]-1,4-diazepan-1-yl]ethyl]-1-oxo-isoindolin-2-yl]piperidine-2,6-dione]: on ERα [1], the DC50 was 1 to 10 nM and the Dmax was over 75%. At ERα [2], the IC50 came out at 1.9 nM.
For `O=C1CCC(N2Cc3cc(NCCCN4CCN(CCOc5ccc(Oc6c(-c7ccc(C(F)(F)F)cc7)sc7cc(O)ccc67)cc5)CC4)ccc3C2=O)C(=O)N1` (stereo not drawn) [Compound 179] the same measures were 1 to 10 nM, 50 to 75% and 1 nM.
At ERα [1], `O=C1CCC(N2C(=O)c3ccc(N4CCN(CC5CN(CCOc6ccc(Oc7c(-c8ccc(Br)cc8)sc8cc(O)ccc78)cc6)C5)CC4)cc3C2=O)C(=O)N1` (stereo not drawn) [Compound 185, 5-[4-[[1-[2-[4-[2-(4-bromophenyl)-6-hydroxy-benzothiophen-3-yl]oxyphenoxy]ethyl]azetidin-3-yl]methyl]piperazin-1-yl]-2-(2,6-dioxo-3-piperidyl)isoindoline-1,3-dione] yielded a DC50 of 1 to 10 nM and a maximal degradation (Dmax) of 50 to 75%. Moreover, on ERα [2], the IC50 came out at 4.5 nM.
At ERα [1], `O=C1CCC(N2Cc3cc(N4CCN(CC5CCN(c6ccc(Oc7c(-c8ccc(Br)cc8)sc8cc(O)ccc78)cc6F)CC5)CC4)ccc3C2=O)C(=O)N1` (stereo not drawn) [Compound 238, 3-[5-[4-[[1-[4-[2-(4-bromophenyl)-6-hydroxy-benzothiophen-3-yl]oxy-2-fluoro-phenyl]-4-piperidyl]methyl]piperazin-1-yl]-1-oxo-isoindolin-2-yl]piperidine-2,6-dione] returned a DC50 of 10 to 100 nM and a Dmax of over 75%. In addition, the IC50 on ERα [2] was determined as 10.9 nM.
For `COc1ccc2c(Oc3ccc(OCCN4CCN(CCCNc5ccc6c(c5)CN(C5CCC(=O)NC5=O)C6=O)CC4)cc3)c(-c3ccc(O)cc3)sc2c1` (stereo not drawn) [Compound 181, 3-[5-[3-[4-[2-[4-[2-(4-hydroxyphenyl)-6-methoxy-benzothiophen-3-yl]oxyphenoxy]ethyl]piperazin-1-yl]propylamino]-1-oxo-isoindolin-2-yl]piperidine-2,6-dione] the same measures were 1 to 10 nM, 50 to 75% and 2.2 nM.
